Test results reported in patent US5300672A (priority 1992, dated 1994).
In brackets after ≈: the same amount, converted by molar mass. Where two headings read alike, the source gives them in different places.

Assays:
Aspergillus niger = test: Broth two-fold serial dilution MIC test (Table 3), A.n; type: cell-based; details: dilution series 500 to 4 ppm
Excerpt: (§1) A minimum inhibitory concentration (MIC) value is obtained using a broth, two-fold serial dilution test performed as follows: A stock solution or dispersion of the test compound, typically at a concentration of 1%, is made in a 5:3:2 solvent solution of acetone, methanol, and water. A volume of the stock solution is dispensed into culture media to give an initial starting test concentration of 500 ppm compound.
(§2) When the test is ready to be done, each vessel in the dilution series, except the first vessel, contains an equal volume of compound free broth. The first vessel contains twice the volume of broth with the starting concentration of test compound. One half of the broth from the first vessel is transferred to the second vessel. After being mixed, one half the resulting volume is removed from the second vessel and transferred to the third vessel. The entire cycle is repeated sufficiently to give a series of concentrations amounting to 500, 250, 125, 63, 31, 16, 8, and 4 ppm, respectively.
(§3) Each vessel is then inoculated with a cell suspension of the appropriate test organism. Bacteria are grown in broth and fungi on agar slants for a time and at a temperature appropriate to the species being tested. At the end of the growth period, the broth is vortexed to disperse the cells. In the case of fungi, the spores are harvested by pipetting water onto the slant and dislodging the spores with a sterile loop. The cell/spore suspension is standardized by controlling incubation time, temperature, and the volume of the diluent. The suspension is then used to inoculate the vessels containing the broth compound. The vessels are then incubated at the appropriate temperature. After the incubation, the vessels are examined for growth/no growth. The minimum inhibitory concentration (MIC) is defined as the lowest concentration of compound that results in complete inhibition of growth of the test organism.

Aureobasidium pullulans = test: Broth two-fold serial dilution MIC test (Table 3), A.p; type: cell-based; details: dilution series 500 to 4 ppm
Excerpt: as §1, §2, §3
Aureobasidium pullulans (A.p)

Escherichia coli = test: Broth two-fold serial dilution MIC test (Table 3), E.c; type: cell-based; details: gram negative, dilution series 500 to 4 ppm
Excerpt: as §1, §2, §3
Escherichia coli (E.c), gram negative

Pseudomonas aerugenosa = test: Broth two-fold serial dilution MIC test (Table 3), Ps.ae; type: cell-based; details: gram negative, dilution series 500 to 4 ppm
Excerpt: as §1, §2, §3
Pseudomonas aerugenosa (Ps.ae), gram negative

Pseudomonas fluorescens [1] = test: Broth two-fold serial dilution MIC test (Table 3), Ps.fl; type: cell-based; details: gram negative, dilution series 500 to 4 ppm
Excerpt: as §1, §2, §3
Pseudomonas fluorescens (Ps.fl), gram negative

Staphylococcus aureus = test: Broth two-fold serial dilution MIC test (Table 3), S.a; type: cell-based; details: gram positive, dilution series 500 to 4 ppm
Excerpt: as §1, §2, §3
Staphylococcus aureus (S.a), gram positive

Piricularia oryzae = test: whole plant or invertebrate; type: in vivo; details: for pest or weed control at 100 ppm: read-out: % Control RB, application rate 100 ppm; for pest or weed control at 200 ppm: read-out: % Control RB, application rate 200 ppm
[2] = tested on: Pellicularia filamentosa (f. sp. sasiki); test: whole plant or invertebrate; type: in vivo; details: 120 h; read-out: % Control RSB
Phytophthora infestans = test: whole plant or invertebrate; type: in vivo; details: for pest or weed control at 100 ppm / pest or weed control at 200 ppm: Phytophthora infestans, in Solanum lycopersicum, 96 h; for pest or weed control at 100 ppm: read-out: % Control TLB; for pest or weed control at 200 ppm: read-out: % Control TLB, application rate 200 ppm
[3] = tested on: Puccinia recondita (f. sp. tritici Races PKB and PLD); test: whole plant or invertebrate; type: in vivo
[4] = tested on: Erysiphe graminis (f. sp. tritici); test: whole plant or invertebrate; type: in vivo; details: for pest or weed control at 100 ppm / pest or weed control at 200 ppm: Blumeria graminis, read-out: % Control WPM
[5] = tested on: Pseudoperonospora cubensis; test: whole plant or invertebrate; type: in vivo
[6] = tested on: Puccinia graminis (f. sp. tritici Race 15B-2); test: whole plant or invertebrate; type: in vivo
Pseudomonas fluorescens [7] = test: Alternate Minimum Inhibitory Concentrations Test (Table 4), Ps.fl; type: cell-based; details: for MIC: Pseudomonas fluorescens, read-out: MIC Ps.fl
How it was run: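 Broth microdilution MIC in TSB: compound (from acetone stock) serially diluted 1:1 from 250 ppm to 0.8 ppm, inoculated with diluted 24 h culture. After 3 days at 30 °C, the lowest concentration with no growth was recorded as MIC.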

Pythium ultimum = Pythium ultimum in vitro Fungitoxicity Assay in liquid culture; type: cell-based, Pythium ultimum (ATCC 26083); details: mycelial dry weight, 48 h at 25° C., shaking at 60 rpm
Procedure: Selected compounds of Examples 1-120 were subjected also to the following in vitro fungitoxicity assay against Pythium ultimum in a liquid culture, with the results as indicated in Table 6.
Pythium ultimum Fungitoxicity Assay
A dilution series of the test compound was prepared in dimethylsulfoxide, and 0.1 ml of each dilution was added to 19.9 ml of a liquid asparagine-sucrose medium (D. C. Erwin and K. Katznelson (1971), Can. J. Microbiol. 7, 15) in 9 cm diameter petri dishes to give the desired final concentrations of test compound. Plates were inoculated with mycelial plugs, 7 mm diameter, taken from the growing edge of 48 h old cultures of Pythium ultimum, (ATCC 26083), grown on potato dextrose agar. Two replicate plates were used for each treatment. The increase in mycelial dry weight was determined after growth for 48 h at 25° C. with shaking at 60 rpm. EC50 values were calculated from dose response curves.

[8] = Puccinia recondita, 240 h, read-out: % Control WLR
[9] = Pseudoperonospora cubensis, in Cucumis sativus, 168 h, read-out: % Control CDM
[10] = Puccinia graminis, 336 h, read-out: % Control WSR
[11] = Table 4 alternate test, 250 ppm to 0.8 ppm in TSB, 72 hours, 30° C.
[12] = Globisporangium ultimum, read-out: EC 50

Compound: CCCCCCCCNC(=O)/C=C\SC(=O)C1=CCCCC1 [Compound 9, N-octyl-cis-3-[(1-cyclohexene)carbonylthio]acrylamide]
- MIC (Aspergillus niger): > 500 µg/mL
- MIC (Aureobasidium pullulans): < 4 µg/mL
- MIC (Escherichia coli): > 500 µg/mL
- MIC (Pseudomonas aerugenosa): > 500 µg/mL
- MIC (Pseudomonas fluorescens [1]): > 500 µg/mL
- MIC (Staphylococcus aureus): > 500 µg/mL
- pest or weed control at 100 ppm (Piricularia oryzae; Pyricularia oryzae): 90%
- pest or weed control at 100 ppm [2]: 0%
- pest or weed control at 100 ppm (Phytophthora infestans): 90%
- pest or weed control at 100 ppm [3, 8]: 0%
- pest or weed control at 100 ppm [4]: 0%

Compound: CCCCCCCCNC(=O)/C=C\SC(=O)CC [Compound 10, N-octyl-cis-3-(propanoylthio)acrylamide]
- MIC (Aspergillus niger): 125 µg/mL (≈ 461 µM)
- MIC (Aureobasidium pullulans): < 4 µg/mL
- MIC (Escherichia coli): > 500 µg/mL
- MIC (Pseudomonas aerugenosa): > 500 µg/mL
- MIC (Pseudomonas fluorescens [1]): 16 µg/mL (≈ 58.9 µM)
- MIC (Staphylococcus aureus): < 4 µg/mL
- pest or weed control at 50 ppm [5, 9]: 85%
- pest or weed control at 100 ppm (Piricularia oryzae; Pyricularia oryzae): 80%
- pest or weed control at 100 ppm [2]: 0%
- pest or weed control at 100 ppm (Phytophthora infestans): 90%
- pest or weed control at 100 ppm [3, 8]: 50%
- pest or weed control at 100 ppm [4]: 0%
- pest or weed control at 200 ppm [6, 10]: 90%

Compound: CCCCCCCCNC(=O)/C=C\SC(=O)N(c1ccccc1)c1ccccc1 [Compound 41, N-octyl-cis-3-(diphenylaminocarbonylthio)acrylamide]
- MIC (Aspergillus niger): > 500 µg/mL
- MIC (Aureobasidium pullulans): > 500 µg/mL
- MIC (Escherichia coli): > 500 µg/mL
- MIC (Pseudomonas aerugenosa): > 500 µg/mL
- MIC (Pseudomonas fluorescens [1]): > 500 µg/mL
- MIC (Staphylococcus aureus): ≥ 500 µg/mL
- MIC (Pseudomonas fluorescens [7]; [11]): > 250 µg/mL
- pest or weed control at 200 ppm [5, 9]: 0%
- pest or weed control at 200 ppm (Piricularia oryzae; Pyricularia oryzae): 0%
- pest or weed control at 100 ppm [2]: 0%
- pest or weed control at 200 ppm (Phytophthora infestans): 0%
- pest or weed control at 25 ppm [3, 8]: 100%
- pest or weed control at 200 ppm [4]: 0%

Compound: CCCCCCCCNC(=O)/C=C\SCC(O)c1ccco1 (stereo not drawn) [Compound 42]
- MIC Ps.fl (Pseudomonas fluorescens [7]; [11]): > 250 Ppm
- % Control CDM ([5]; in vivo): 50 % Control
- % Control RB (Piricularia oryzae; in vivo): 90 % Control
- % Control TLB (Phytophthora infestans; application rate 200 ppm): 0 % Control
- % Control WLR ([3]; in vivo): 0 % Control
- % Control WPM ([4]; in vivo): 0 % Control
- % Control WSR ([6]; application rate 200 ppm): 50 % Control
- EC50 (Pythium ultimum): 9 ppm

Compound: CCCCCCCCNC(=O)/C=C\SC[C@H](N)C(=O)O [Compound 47, N-octyl-cis-3-[(2-amino-2-carboxyethane)thio]acrylamide]
- MIC (Aspergillus niger): > 500 µg/mL
- MIC (Aureobasidium pullulans): > 500 µg/mL
- MIC (Escherichia coli): > 500 µg/mL
- MIC (Pseudomonas aerugenosa): > 500 µg/mL
- MIC (Pseudomonas fluorescens [1]): > 500 µg/mL
- MIC (Staphylococcus aureus): > 500 µg/mL
- MIC (Pseudomonas fluorescens [7]; [11]): > 250 µg/mL
- pest or weed control at 12 ppm [5, 9]: 70%
- pest or weed control at 50 ppm (Piricularia oryzae; Pyricularia oryzae, read-out: % Control RB, application rate 50 ppm): 0%
- pest or weed control at 100 ppm (Phytophthora infestans): 90%
- pest or weed control at 50 ppm [6, 10]: 90%

Compound: CCCCCCCCNC(=O)/C=C\SC(=O)c1nccc2ccccc12 [Compound 73, N-octyl-cis-3-[(1-isoquinoline)carbonylthio]acrylamide]
- MIC (Pseudomonas fluorescens [7]; [11]): > 250 µg/mL
- pest or weed control at 200 ppm (Piricularia oryzae; Pyricularia oryzae): 0%
- pest or weed control at 200 ppm [2]: 0%
- pest or weed control at 200 ppm (Phytophthora infestans): 0%
- pest or weed control at 200 ppm [3, 8]: 25%
- pest or weed control at 200 ppm [4]: 0%
- EC50 (Pythium ultimum; [12]): 8.4 µg/mL (≈ 22.7 µM)

Compound: CCCCCCCCNC(=O)/C=C\SC(=O)C1CCc2ccccc2C1 (stereo not drawn) [Compound 74, N-octyl-cis-3-[(1,2,3,4-tetrahydronaphth-2-oyl)thio]acrylamide]
- MIC (Pseudomonas fluorescens [7]; [11]): > 250 µg/mL
- pest or weed control at 200 ppm (Piricularia oryzae; Pyricularia oryzae): 0%
- pest or weed control at 200 ppm [2]: 0%
- pest or weed control at 200 ppm (Phytophthora infestans): 0%
- pest or weed control at 200 ppm [3, 8]: 0%
- pest or weed control at 200 ppm [4]: 0%
- EC50 (Pythium ultimum; [12]): 5 µg/mL (≈ 13.4 µM)

Compound: CCCCCCCCNC(=O)/C=C\SC(=O)c1ccc2ccccc2n1 [Compound 76, N-octyl-cis-3-[(2-quinoline)carbonylthio]acrylamide]
- MIC (Pseudomonas fluorescens [7]; [11]): > 250 µg/mL
- pest or weed control at 200 ppm (Piricularia oryzae; Pyricularia oryzae): 0%
- pest or weed control at 200 ppm [2]: 0%
- pest or weed control at 200 ppm (Phytophthora infestans): 0%
- pest or weed control at 200 ppm [3, 8]: 0%
- pest or weed control at 200 ppm [4]: 0%
- EC50 (Pythium ultimum; [12]): 13.2 µg/mL (≈ 35.6 µM)

Compound: CCCCCCCCNC(=O)/C=C\SC(=O)CC(C)c1ccccc1 (stereo not drawn) [Compound 78, N-octyl-cis-3-[(3-phenylbutanoyl)thio]acrylamide]
- MIC (Pseudomonas fluorescens [7]; [11]): > 250 µg/mL
- pest or weed control at 200 ppm (Piricularia oryzae; Pyricularia oryzae): 0%
- pest or weed control at 200 ppm [2]: 0%
- pest or weed control at 200 ppm (Phytophthora infestans): 0%
- pest or weed control at 200 ppm [3, 8]: 0%
- pest or weed control at 200 ppm [4]: 0%
- EC50 (Pythium ultimum; [12]): 23.9 µg/mL (≈ 66.1 µM)

Compound: CCCCCCCCNC(=O)/C=C\SC(=O)c1ccc(CCCC)cc1 [Compound 115, N-octyl-cis-3-[(4-butylbenzoyl)thio]acrylamide]
- MIC (Aspergillus niger): > 500 µg/mL
- MIC (Aureobasidium pullulans): ≥ 250 µg/mL
- MIC (Escherichia coli): > 500 µg/mL
- MIC (Pseudomonas aerugenosa): > 500 µg/mL
- MIC (Pseudomonas fluorescens [1]): > 500 µg/mL
- MIC (Staphylococcus aureus): > 500 µg/mL
- MIC (Pseudomonas fluorescens [7]; 72 h): > 250 µg/mL
- pest or weed control at 200 ppm (Phytophthora infestans): 0%

Compound: O=C(/C=C\SC(=O)c1ccccc1)NCCN1CCOCC1 [Compound 116, N-[2-(4-morpholine)ethyl]-cis-3-(benzoylthio)acrylamide]
- MIC (Pseudomonas fluorescens [7]; [11]): > 250 µg/mL
- pest or weed control at 200 ppm [5, 9]: 0%
- pest or weed control at 12 ppm (Piricularia oryzae; Pyricularia oryzae, read-out: % Control RB, application rate 12 ppm): 50%
- pest or weed control at 200 ppm (Phytophthora infestans): 0%
- pest or weed control at 200 ppm [3, 8]: 0%
- pest or weed control at 200 ppm [4]: 0%
- EC50 (Pythium ultimum; [12]): 10.3 µg/mL (≈ 32.1 µM)
